Structures can show the parent of a compound that is named as a salt. Where two headings read alike, the source gives them in different places.
Key:
[1] = target: N-terminal GST tagged recombinant human RET cytoplasmic domain (aa 658-end), wild type RET kinase (Homo sapiens (Human), UniProt P07949); experiment: RET Enzyme Assay (HTRF KinEASE-TK), wild type RET; format: biochemical
[2] = target: Kif5b-RET fusion protein in HEK-293 cells (Homo sapiens, UniProt P07949); experiment: cell-based; settings: HEK-293 cells expressing Kif5b-RET, read-out: KIF5B-RET pTYR1062 Cell IC50
Sequence of Kif5b-RET fusion protein in HEK-293 cells (P07949 29-1114 limits assumed): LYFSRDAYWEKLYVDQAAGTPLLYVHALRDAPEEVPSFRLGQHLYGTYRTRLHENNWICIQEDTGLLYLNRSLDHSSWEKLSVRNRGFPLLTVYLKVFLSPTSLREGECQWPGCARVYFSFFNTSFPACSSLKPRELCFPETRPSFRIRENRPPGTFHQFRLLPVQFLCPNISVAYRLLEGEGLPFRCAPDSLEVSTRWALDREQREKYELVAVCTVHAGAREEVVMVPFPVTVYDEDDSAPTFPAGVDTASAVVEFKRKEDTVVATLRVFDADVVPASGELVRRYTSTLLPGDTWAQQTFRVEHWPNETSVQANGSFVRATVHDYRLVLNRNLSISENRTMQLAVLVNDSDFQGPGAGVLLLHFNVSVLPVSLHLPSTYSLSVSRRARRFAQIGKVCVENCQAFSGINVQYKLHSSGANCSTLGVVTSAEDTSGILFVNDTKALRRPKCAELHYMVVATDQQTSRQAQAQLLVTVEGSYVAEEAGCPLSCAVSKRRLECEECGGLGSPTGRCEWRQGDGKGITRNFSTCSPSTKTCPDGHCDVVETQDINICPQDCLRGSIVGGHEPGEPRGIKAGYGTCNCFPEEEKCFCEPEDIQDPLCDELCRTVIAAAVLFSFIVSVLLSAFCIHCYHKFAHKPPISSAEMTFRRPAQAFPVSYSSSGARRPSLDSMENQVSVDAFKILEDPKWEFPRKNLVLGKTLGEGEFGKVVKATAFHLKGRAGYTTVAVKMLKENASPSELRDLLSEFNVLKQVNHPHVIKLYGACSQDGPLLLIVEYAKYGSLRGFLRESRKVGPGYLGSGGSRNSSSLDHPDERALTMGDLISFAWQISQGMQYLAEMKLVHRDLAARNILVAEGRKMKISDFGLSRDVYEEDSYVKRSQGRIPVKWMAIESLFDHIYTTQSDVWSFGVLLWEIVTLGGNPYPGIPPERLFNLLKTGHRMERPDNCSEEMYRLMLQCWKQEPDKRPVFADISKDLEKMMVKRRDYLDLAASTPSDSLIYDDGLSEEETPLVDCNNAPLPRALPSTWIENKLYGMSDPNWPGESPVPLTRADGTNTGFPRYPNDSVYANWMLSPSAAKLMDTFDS
Protocol: The cellular potency of a compound inhibiting RET kinase was determined in HEK-293 cells expressing a Kif5b-RET fusion protein. Briefly, HEK-293 cells expressing a Kif5b-RET fusion protein were plated at 50K cells/well in 96 well poly-D-Lysine coated plates the day prior to the assay. The cells were incubated for 1 hour with test compound in DMEM (Dulbecco's Modified Eagle Medium) at a final DMSO concentration of 0.5%. […] After 1 hour the media was removed, the cells were fixed with 3.8% formaldehyde for 20 min, washed with PBS, and permeabilized for 10 min with 100% methanol. […] All antibodies were diluted in LI-COR Block containing 0.05% Tween. The plates were washed with PBS-0.05% Tween20, 100 μL PBS was added to each well, and the plates were read on a LI-COR Aerius fluorescent plate reader. The phospho-RET signal was normalized to the GAPDH signal. […] The IC50 value is the point where the curve crosses 50 POC.

Sequence of N-terminal GST tagged recombinant human RET cytoplasmic domain (aa 658-end), wild type RET kinase (P07949 658-1114): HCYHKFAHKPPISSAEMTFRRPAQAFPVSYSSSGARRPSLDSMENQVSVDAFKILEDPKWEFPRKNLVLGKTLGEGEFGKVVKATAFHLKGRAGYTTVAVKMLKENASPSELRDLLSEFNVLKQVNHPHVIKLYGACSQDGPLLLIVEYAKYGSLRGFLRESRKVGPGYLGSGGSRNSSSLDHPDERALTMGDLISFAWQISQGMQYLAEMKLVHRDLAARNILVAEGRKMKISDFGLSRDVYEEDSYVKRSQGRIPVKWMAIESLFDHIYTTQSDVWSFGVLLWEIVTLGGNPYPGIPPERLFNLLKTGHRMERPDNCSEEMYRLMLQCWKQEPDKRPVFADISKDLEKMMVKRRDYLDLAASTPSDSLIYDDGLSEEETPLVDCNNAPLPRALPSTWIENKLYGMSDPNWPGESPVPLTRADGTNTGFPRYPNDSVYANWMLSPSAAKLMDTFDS

Row | Compound | IC50 ([1]; wild type RET, 1 mM ATP) [nM] | IC50 [2] [nM] | also measured
1 | Cn1cc(-c2cc(-c3ccc(N4CCC(S(=O)(=O)O)CC4)nc3)c3c(C#N)cnn3c2)cn1 [Example 568, 1-(5-(3-cyano-6-(1-methyl-1H-pyrazol-4-yl)pyrazolo[1,5-a]pyridin-4-yl)pyridin-2-yl)piperidine-4-sulfonic acid] | 6.1 | 5000 | –
2 | Cc1cc(-c2cc(-c3cnn(C)c3)cn3ncc(C#N)c23)cnc1N1CCNCC1 [Example 276, 6-(1-methyl-1H-pyrazol-4-yl)-4-(5-methyl-6-(piperazin-1-yl)pyridin-3-yl)pyrazolo[1,5-a]pyridine-3-carbonitrile dihydrochloride] | 395 | – | –
3 | CC(C)NC(=O)[C@@H]1CCCN(c2ccc(-c3cc(-c4cnn(C)c4)cn4ncc(C#N)c34)cn2)C1 [Example 229, (R)-1-(5-(3-cyano-6-(1-methyl-1H-pyrazol-4-yl)pyrazolo[1,5-a]pyridin-4-yl)pyridin-2-yl)-N-isopropylpiperidine-3-carboxamide] | 334 | – | –
4 | Cn1cc(-c2cc(-c3ccc(N4CCNCC4)nc3)c3ccnn3c2)cn1 [Example 312, 6-(1-methyl-1H-pyrazol-4-yl)-4-(6-(piperazin-1-yl)pyridin-3-yl)pyrazolo[1,5-a]pyridine dihydrochloride] | – | – | IC50 [1]: 607 nM
5 | Cc1cc(-c2cc(-c3cnn(C)c3)cn3ncc(C#N)c23)cnc1N1CCN(C(=O)OC(C)(C)C)CC1 [Example 275, tert-Butyl 4-(5-(3-cyano-6-(1-methyl-1H-pyrazol-4-yl)pyrazolo[1,5-a]pyridin-4-yl)-3-methylpyridin-2-yl)piperazine-1-carboxylate] | 1500 | – | –
6 | Cc1cnn2cc(-c3cnn(C)c3)cc(-c3ccc(N4CCNCC4)nc3)c12 [Example 651, 3-methyl-6-(1-methyl-1H-pyrazol-4-yl)-4-(6-(piperazin-1-yl)pyridin-3-yl)pyrazolo[1,5-a]pyridine] | 208 | – | –
7 | Cc1cc(-c2cc(-c3cnn(C)c3)cn3ncc(C#N)c23)cnc1N1CCN(C(=O)CC(C)(C)O)CC1 [Example 277, 4-(6-(4-(3-hydroxy-3-methylbutanoyl)piperazin-1-yl)-5-methylpyridin-3-yl)-6-(1-methyl-1H-pyrazol-4-yl)pyrazolo[1,5-a]pyridine-3-carbonitrile] | 300 | – | –

Second part, led by results:

Row | IC50 ([1]; wild type RET, 1 mM ATP) [nM] | IC50 [2] [nM] | Compound | also measured
8 | 20.1 | 6.5 | COc1ccc(CN2CCN(c3ccc(-c4cc(-c5cnn(CC(C)CO)c5)cn5ncc(C#N)c45)cn3)CC2)cn1 (stereo in doubt) [Example 707, (R)-6-(1-(3-hydroxy-2-methylpropyl)-1H-pyrazol-4-yl)-4-(6-(4-((6-methoxypyridin-3-yl)methyl)piperazin-1-yl)pyridin-3-yl)pyrazolo[1,5-a]pyridine-3-carbonitrile] | –
9 | 20 | 12.6 | COc1ccc(CN2CCN(c3ccc(-c4cc(-c5cnn(CC(=O)N(C)C)c5)cn5ncc(C#N)c45)cn3)CC2)cn1 [Example 710, 2-(4-(3-cyano-4-(6-(4-((6-methoxypyridin-3-yl)methyl)piperazin-l-yl)pyridin-3-yl)pyrazolo[1,5-a]pyridin-6-yl)-1H-pyrazol-1-yl)-N,N-dimethylacetamide] | –
10 | 11.9 | – | Cn1cc(-c2cc(-c3ccc(N4CCN(C(=O)CCS(C)(=O)=O)CC4)nc3)c3c(C#N)cnn3c2)cn1 [Example 3, 6-(1-methyl-1H-pyrazol-4-yl)-4-(6-(4-(3-(methylsulfonyl)propanoyl)piperazin-1-yl)pyridin-3-yl)pyrazolo[1,5-a]pyridine-3-carbonitrile] | IC50 ([2]; phospho-RET(Tyr1062)): 119 nM
11 | – | 16.1 | COc1ccc(CN2CCN(c3ccc(-c4cc(-c5cnn(C(F)F)c5)cn5ncc(C#N)c45)cn3)CC2)cn1 [Example 696, 6-(1-(difluoromethyl)-1H-pyrazol-4-yl)-4-(6-(4-((6-methoxypyridin-3-yl)methyl)piperazin-1-yl)pyridin-3-yl)pyrazolo[1,5-a]pyridine-3-carbonitrile] | –

— patent publication US10023570B2 (Array BioPharma, Inc., priority 2015, dated 2018)
